Experiments:
[1] = tested on: metastatic, androgen independent prostate cancer; details: docetaxel in combination with prednisone, given every three weeks; control mitoxantrone and prednisone; cited from earlier work
PSMA NAALADase activity = PSMA NAALADase activity (Homo sapiens, UniProt Q04609); assay: NAALADase inhibition assay; format: biochemical; details: relative to parent aptamer
Procedure: These point mutant constructs were assessed for activity in terms of inhibition of PSMA NAALADase activity. The NAALADase assay was performed in 96 well format. PSMA aptamers were serially diluted in 1× reaction buffer (40 mM Tris-HCl, pH 7.4, 0.1 mM ZnSO4, 0.1 mg/mL BSA) in a standard 96 well plate to be tested at a final concentration range from 30 pM to 1 μM. The enzyme was prepared by diluting 30 μL of 100 nM PSMA into 8 mL of reaction buffer, and kept cool on ice. The substrate was prepared by adding 19 μl of NAAG [Glutamate-3,4-^3H], 50.8 Ci/mmol, 19.7 μM (Perkin-Elmer, Wellesley, Mass., NET1082) into 2.2 mL of reaction buffer.
Following preparation of all reagents, 4 μl of each serially diluted aptamer was added to a separate 96 well plate (the reaction plate). 76 μl of diluted enzyme was added to the corresponding wells containing aptamer. 80 μl of reaction buffer was added to one column of wells to serve as a background control. The diluted substrate and reaction plate were then moved to a room at 37° C. and allowed to equilibrate for 10 minutes. […]
To separate the cleavage products, […] and Glutamate, from the substrate, an AG 1-×8, 200-400 mesh, formate resin (BioRad, Hercules, Calif., # 140-1454) was used. […] The plate was sealed and read using a Packard Topcount Microplate Scintillation Counter. […]

LNCaP cells (PSMA+) = assay: LNCaP FACS assay with fluorescein-labeled aptamers; format: cell-based
Description: The parent A9 aptamer sequence (SEQ ID NO 168) is predicted by the MFOLD algorithm implemented in the RNAStructure program v. 4.11 to fold into a partially mismatched hairpin that encompasses almost the entire molecule. A series of truncated constructs were designed, in which self-pairing nucleotides from the 5′- and 3′-ends were simultaneously removed, chemically synthesized using conventional solid-phase phosphoramidite-based synthesis, and tested. In the design of some of the truncated A9 aptamers, see e.g. ARC591, additional bases were added to the 3′ and 5′ ends of the truncate, where the bases added to the 5′ end were capable of forming Watson-Crick base pairs with those added to the 3′ end thereby increasing the length of stem structure. Truncated aptamers were 5′-labeled with fluorescein and tested for binding in to LNCaP cells (PSMA+) in the FACS assay described below. PC-3 cells (PSMA−) were used as a control cell line. The sequences of the truncated A9 aptamers designed are listed below in Table 6 below.
To accomplish 5′-fluorescein labeling, aptamers were synthesized with a 5′-amine and then modified post-solid phase synthesis. The required aptamer was dissolved to a concentration of ˜10-50 mg/mL in 25 mM phosphate buffer, pH 7.4. The small molecule, NHS ester of fluorescein, was dissolved to a concentration of 10 mg/mL in DMSO. 1.5 Molar equivalents were added to the aptamer and the solution vortexed for ˜15 seconds. The reaction was allowed to proceed in the dark at room temperature for 1 hour and then a 5 μL aliquot was withdrawn, diluted with water and analyzed by HPLC. Additional equivalents of the small molecule were added until the reaction was complete by HPLC. Excess small molecules were removed by gel filtration.
To prepare aptamers for the FACS assay, PSMA aptamers were serially diluted (0-1 uM) in FACS buffer (1×DPBS w/Ca^++/Mg^++ (Gibco, Carlsbad, Calif.) supplemented with 10 mg/mL salmon sperm DNA & 0.2% Na Azide), in a V-bottom 96 well plate, at the concentrations to be tested. LNCaP and PC-3 cells (ATCC, Manassas, Va.) were harvested with trypsin, and 200,000 cells/well were counted, washed once with 1×DPBS (with Ca^++ and Mg^++) and resuspended in 200 μl of FACS Buffer. The 200 μl of cells in FACS buffer were added to individual wells of a new 96 well plate, pelleted by centrifugation (1300 rpm for 5 minutes), and resuspended in 100 μl of the appropriate concentration of diluted aptamer. FACS buffer, c-PSMA antibody (3C6) (Northwest Biotherapeutics, Bothell, Wash., Cat #: 60-5002) and an irrelevant fluorescein isothiocyanate (“FITC”) mouse IgG1 isotype control antibody (BD Pharmingen, San Diego, Calif., Cat#: 554679) were used as controls. The wells of aptamer/cell mixture were incubated at room temperature for 20-30 minutes. […]

PC-3 cells (PSMA−) = assay: FACS assay on control cell line; format: cell-based
Description: The parent A9 aptamer sequence (SEQ ID NO 168) is predicted by the MFOLD algorithm implemented in the RNAStructure program v. 4.11 to fold into a partially mismatched hairpin that encompasses almost the entire molecule. A series of truncated constructs were designed, in which self-pairing nucleotides from the 5′- and 3′-ends were simultaneously removed, chemically synthesized using conventional solid-phase phosphoramidite-based synthesis, and tested. […]
To prepare aptamers for the FACS assay, PSMA aptamers were serially diluted (0-1 uM) in FACS buffer (1×DPBS w/Ca^++/Mg^++ (Gibco, Carlsbad, Calif.) supplemented with 10 mg/mL salmon sperm DNA & 0.2% Na Azide), in a V-bottom 96 well plate, at the concentrations to be tested. LNCaP and PC-3 cells (ATCC, Manassas, Va.) were harvested with trypsin, and 200,000 cells/well were counted, washed once with 1×DPBS (with Ca^++ and Mg^++) and resuspended in 200 μl of FACS Buffer. […]
Cell samples were analyzed on a FACS Scan machine (Becton Dickinson, San Jose, Calif.) under the following parameters: FSC/SSC, FL-1/FSC, FL-3/FSC. The unstained and/or isotype controls were used to establish gating parameters, and the data was analyzed using Cell Quest Pro software version 5.1.1 (Becton Dickinson Immunocytometry Systems, San Jose, Calif.).

Chain of PSMA NAALADase activity (Q04609 with tags, fused parts or gaps limits assumed): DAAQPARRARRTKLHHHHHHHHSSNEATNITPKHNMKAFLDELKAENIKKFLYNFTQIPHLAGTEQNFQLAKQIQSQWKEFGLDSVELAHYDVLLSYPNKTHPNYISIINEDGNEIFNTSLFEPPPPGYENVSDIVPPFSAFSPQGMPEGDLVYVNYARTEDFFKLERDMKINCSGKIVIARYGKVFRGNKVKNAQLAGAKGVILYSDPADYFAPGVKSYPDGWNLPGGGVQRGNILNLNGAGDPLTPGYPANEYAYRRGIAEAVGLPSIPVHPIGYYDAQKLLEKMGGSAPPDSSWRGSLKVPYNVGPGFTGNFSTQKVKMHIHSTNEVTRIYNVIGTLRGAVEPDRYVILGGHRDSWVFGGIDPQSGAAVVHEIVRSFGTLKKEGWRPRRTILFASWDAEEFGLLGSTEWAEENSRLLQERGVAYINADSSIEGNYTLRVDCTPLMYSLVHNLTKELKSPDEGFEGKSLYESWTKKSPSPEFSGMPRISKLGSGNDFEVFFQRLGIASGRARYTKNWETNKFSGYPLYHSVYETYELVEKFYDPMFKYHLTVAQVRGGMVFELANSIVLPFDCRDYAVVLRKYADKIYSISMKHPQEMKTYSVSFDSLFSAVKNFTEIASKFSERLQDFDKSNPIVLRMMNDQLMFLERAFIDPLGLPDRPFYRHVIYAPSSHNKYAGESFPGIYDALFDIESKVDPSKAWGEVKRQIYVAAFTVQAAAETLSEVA

Molecule | survival advantage over the control group [1] | NAALADase inhibition activity (in words) (PSMA NAALADase activity) | binding to LNCaP (PSMA+) cells by FACS (in words) (LNCaP cells (PSMA+)) | binding to PC-3 (PSMA−) cells by FACS (in words) (PC-3 cells (PSMA−))
CC(=O)O[C@@]12CO[C@@H]1C[C@H](O)[C@@]1(C)C(=O)[C@H](O)C3=C(C)[C@@H](OC(=O)[C@H](O)[C@@H](NC(=O)OC(C)(C)C)c4ccccc4)C[C@@](O)([C@@H](OC(=O)c4ccccc4)[C@H]21)C3(C)C [Taxotere, docetaxel] | approximately 2.5 months |  |  | 
GGAGGACCGAAAAAGACCUGACUUCUAUACUAAGUCUACGUUCCUCCA (2'-fluoro pyrimidines, further chemistry not given here) [ARC591, 48-nt minimer of A9, 2′-OH purines, 2′-fluoro pyrimidines] |  | retained full functional activity | retained full functional activity | 
GGGAGGACGAUGCGGACCGAAAAAGACCUGAfCfUfUfCfUAfUAfCfUAAGfUfCfUAf CGfUfUfCfCfCAGAfCGAfCfUfCGfCfCfCGA (nucleic acid, listed as RNA, chemistry not fully specified, existing PSMA specific aptamer of rRfY composition, described in U.S. Ser. No. 09/978,969) GGGAGGACGAUGCGGACCGAAAAAGACCUGACUUCUAUACUAAGUCUACGUUCCCAGACGACUCGCCCGA |  |  | binding to LNCaP (PSMA+) cells | not to PC-3 (PSMA−) cells
